Reference: patent publication US6194437A (Warner-Lambert Company, priority 1999, dated 2001)

What was measured:
[1] = target: T1, cloned human NMB-preferring receptor (BB1) (Homo sapiens, UniProt P28336); experiment: Receptor binding assay, cloned human NMB-preferring receptor (BB1), [125I][Tyr4]bombesin displacement; details: CHO-K1 cell membranes, 60 minutes incubation
T1 construct: expressed in transfected cells
Experimental: (§1) For binding experiments, cells were harvested by trypsinization, and stored frozen at -70° C. in Ham's F12 culture medium containing 5% DMSO until required. On the day of use, cells were thawed rapidly, diluted with an excess of culture medium, and centrifuged for 5 minutes at 2000 g. Cells were resuspended in 50 mM Tris-HCl assay buffer (pH 7.4 at 21° C., containing 0.02% BSA, 40 μg/ml bacitracin, 2 μg/mL chymostatin, 4 μg/mL leupeptin, and 2 μM phosphoramidon), counted, and polytronned (setting 5, 10 sec) before centrifuging for 10 minutes at 28,000 g. The final pellet was resuspended in assay buffer to a final cell concentration of 1.5×10^5 /mL. […] Radioactivity bound was determined using a gamma counter.

[2] = target: T2, cloned human GRP-preferring receptor (BB2) (Homo sapiens, UniProt P30550); experiment: Receptor binding assay, cloned human GRP-preferring receptor (BB2), [125I][Tyr4]bombesin displacement; details: CHO-K1 cell membranes, 90 minutes incubation
T2 construct: expressed in transfected cells
Experimental: as §1, with “The compounds of the invention have been evaluated in receptor binding assays which measure the affinity of the novel compounds in a cloned human NMB-preferring receptor (BB1) assay and in a cloned human GRP-preferring receptor (BB2) assay. Protocol for Binding Assays […] For” for “For”

[3] = target: T3, cloned human NMB-preferring receptors expressed in CHO cells (Homo sapiens, UniProt P28336); experiment: Measurement of extracellular acidification (CYTOSENSOR) in CHO-NMB cells; format: cell-based; details: NMB-preferring receptor (BB1), antagonist 30 minutes prior to agonist, 37° C.
T3 construct: functional calcium (Fura-2) and Cytosensor acidification assays
Description: The compounds of the invention have been tested in in vitro functional assays using cloned human NMB-preferring receptors expressed in CHO cells.
Protocols for functional assays:
2. Measurement of extracellular acidification (CYTOSENSOR)
This acidification rate is detected as a change in potential across a silicon light addressable sensor, during periods of media cessation (McConnell, et al., 1992).
CHO-NMB Cells seeded on polycarbonate microporous capsule cups were placed insensor chambers at 37° C. inside the microphysiometer, and maintained by a flow of nonbuffering Ham's F12 nutrient media (growth media without NaHCO3, pH 7.3-7.4) at approximately 120 μL/min. The flow was halted for 22 seconds at the end of each 2 minute repeated cycle, and the rate of acidification (μ volts/sec) measured for 15 seconds during that period.
Agonists were introduced sequentially every 28 to 30 minutes to the perfusing media, 20 seconds before flow-off periods, and removed after two rate measurements via the automatic valve-switch.
The effects of various antagonists were determined after continuous perfusion 30 minutes prior to, and throughout the application of agonists. All agents were applied at the working pH of the media.

T1 sequence (P28336 whole entry): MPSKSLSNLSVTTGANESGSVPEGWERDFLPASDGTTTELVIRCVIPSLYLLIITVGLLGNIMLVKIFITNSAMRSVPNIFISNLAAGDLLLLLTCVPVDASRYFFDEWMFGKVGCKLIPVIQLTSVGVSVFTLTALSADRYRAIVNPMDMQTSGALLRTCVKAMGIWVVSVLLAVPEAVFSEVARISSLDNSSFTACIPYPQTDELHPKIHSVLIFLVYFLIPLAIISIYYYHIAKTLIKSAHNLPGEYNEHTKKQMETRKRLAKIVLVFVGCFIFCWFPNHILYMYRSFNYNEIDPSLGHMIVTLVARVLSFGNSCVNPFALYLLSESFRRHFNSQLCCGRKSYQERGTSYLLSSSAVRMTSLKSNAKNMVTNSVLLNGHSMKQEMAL
T2 sequence (P30550 whole entry): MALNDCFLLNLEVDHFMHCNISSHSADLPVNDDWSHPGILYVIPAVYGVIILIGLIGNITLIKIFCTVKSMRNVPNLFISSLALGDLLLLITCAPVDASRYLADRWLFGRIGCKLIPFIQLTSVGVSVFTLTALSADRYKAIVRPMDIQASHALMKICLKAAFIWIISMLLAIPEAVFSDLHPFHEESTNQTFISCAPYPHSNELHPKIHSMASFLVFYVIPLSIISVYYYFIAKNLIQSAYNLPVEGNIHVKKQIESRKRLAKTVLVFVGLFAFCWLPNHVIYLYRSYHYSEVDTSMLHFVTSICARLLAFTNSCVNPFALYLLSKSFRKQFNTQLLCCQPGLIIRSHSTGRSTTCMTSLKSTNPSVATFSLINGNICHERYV
T3 sequence (P28336 whole entry): as the sequence (P28336 whole entry) above

SMILES | Ki [1] [nM] | Ki [2] [nM] | Acidification Response appKB [3]
CC(C)c1cccc(C(C)C)c1NC(=O)NC(C)(Cc1c[nH]c2ccccc12)C(=O)N[C@H]1COC(C)(C)O[C@H]1c1ccccc1 (single isomer, unassigned) [Example 25] | 95 | – | –
CC(C)c1cccc(C(C)C)c1NC(=O)N[C@](C)(Cc1c[nH]c2ccccc12)C(=O)N[C@H]1CCCc2ccccc21 [Example 2, 2-[3-(2,6-Diisopropyl-phenyl)-ureido]-3-(1H-indol-3-yl)-2-methyl-N-(1,2,3,4-tetrahydro-naphthalen-1-yl)-propionamide] | 14 | > 10000 | 54.3
CC(C)c1cccc(C(C)C)c1NC(=O)N[C@](C)(Cc1c[nH]c2ccccc12)C(=O)N[C@H]1CCc2ccccc21 [Example 3, 2-[3-(2,6-Diisopropyl-phenyl)-ureido]-N-indan-1-yl-3-(1H-indol-3-yl)-2-methyl-propionamide] | 130 | > 10000 | –
CC(C)c1cccc(C(C)C)c1NC(=O)NC(C)(Cc1c[nH]c2ccccc12)C(=O)NCCC1CCCCC1 (stereo not drawn) [Example 4, N-(2-Cyclohexyl-ethyl)-2-[3-(2,6-diisopropyl-phenyl)-ureido]-3-(1H-indol-3-yl)-2-methyl-propionamide] | 215 | > 10000 | –
CC(C)c1cccc(C(C)C)c1NC(=O)NC(C)(Cc1c[nH]c2ccccc12)C(=O)Nc1ccccc1 (stereo not drawn) [Example 5] | 942 | > 10000 | –
CC(C)c1cccc(C(C)C)c1NC(=O)N[C@](C)(Cc1c[nH]c2ccccc12)C(=O)N[C@H]1CCCC[C@H]1c1ccccc1 [Example 6, 2-[3-(2,6-Diisopropyl-phenyl)-ureido]-3-(1H-indol-3-yl)-2-methyl-N-(2-phenyl-cyclohexyl)-propionamide] | 783 | > 10000 | –
CC(C)c1cccc(C(C)C)c1NC(=O)NC(Cc1c[nH]c2ccccc12)C(=O)N(C)CC1CCCCC1 (stereo not drawn) [Example 7, N-Cyclohexylmethyl-2-[3-(2,6-diisopropyl-phenyl)-ureido]-3-(1H-indol-3-yl)-N-methyl-propionamide] | 487 | > 10000 | –
CC(Cc1c[nH]c2ccccc12)(NC(=O)Nc1ccc([N+](=O)[O-])cc1)C(=O)NCC1CCCCC1 (stereo not drawn) [Example 8] | 3 | 450 | –
CC(Cc1c[nH]c2ccccc12)(NC(=O)Nc1ccc([N+](=O)[O-])cc1)C(=O)NCC1(O)CCCCC1 (stereo not drawn) [Example 9] | 3.3 | 1130 | –
CC(C)c1cccc(C(C)C)c1NC(=O)N(C)C(Cc1c[nH]c2ccccc12)C(=O)NCC1CCCCC1 (stereo not drawn) [Example 10, N-Cyclohexylmethyl-2-[3-(2,6-diisopropyl-phenyl)-1-methyl-ureido]-3-(1H-indol-3-yl)-propionamide] | 758 | 1460 | –
CC(C)c1cccc(C(C)C)c1NC(=O)N[C@@](C)(Cc1c[nH]c2ccccc12)C(=O)NCC1CCCCC1 [Example 11, N-Cyclohexylmethyl-2-[3-(2,6-diisopropyl-phenyl)-ureido]-3-(1H-indol-3-yl)-2-methyl-propionamide] | 103 | > 10000 | –
C[C@H](NC(=O)N[C@@](C)(Cc1c[nH]c2ccccc12)C(=O)NCC1(c2ccccn2)CCCCC1)c1ccc([N+](=O)[O-])cc1 [Example 12] | 0.7 | 60 | –
C[C@@](Cc1c[nH]c2ccccc12)(NC(=O)Nc1ccc(C#N)cc1)C(=O)NCC1(c2ccccn2)CCCCC1 [Example 13] | 0.3 | 38 | –
C[C@@](Cc1c[nH]c2ccccc12)(NC(=O)Nc1ccc(C(F)(F)F)cc1)C(=O)NCC1(c2ccccn2)CCCCC1 [Example 15] | 2 | 165 | –
CCOC(=O)c1ccc(NC(=O)N[C@@](C)(Cc2c[nH]c3ccccc23)C(=O)NCC2(c3ccccn3)CCCCC2)cc1 [Example 16] | 3 | 140 | –
COc1cccc(OC)c1NC(=O)NC(C)(Cc1c[nH]c2ccccc12)C(=O)NCC1CCCCC1 (stereo not drawn) [Example 17, N-Cyclohexylmethyl-2-[3-(2,6-dimethoxy-phenyl)ureido]-3-(1H-indol-3-yl)-2-methyl-propionamide] | 3310 | 2940 | –
CC(C)c1cccc(C(C)C)c1NC(=O)[C@H](Cc1c[nH]c2ccccc12)NC(=O)NC(c1ccccc1)C(C)(C)C (stereo partly drawn) [Example 18, (S)-N-(2,6-Diisopropyl-phenyl)-2-[3-(2,2-dimethyl-1-phenyl-propyl)-ureido]-3-(1H-indol-3-yl)-propionamide] | 25 | > 10000 | –
CC(C)c1cccc(C(C)C)c1NC(=O)NC(C)(Cc1cccc[n+]1[O-])C(=O)NCC1(c2ccccn2)CCCCC1 (stereo not drawn) [Example 19, 2-[3-(2,6-Diisopropyl-phenyl)-ureido]-2-methyl-3-(1-oxy-pyridin-2-yl)-N-(1-pyridin-2-yl-cyclohexylmethyl)-propionamide] | 3 | 762 | –
CC(C)c1cccc(C(C)C)c1NC(=O)NC(C)(Cc1ccccc1C(F)(F)F)C(=O)NCC1(c2ccccn2)CCCCC1 (stereo not drawn) [Example 20] | 33 | > 10000 | –
CC(C)c1cccc(C(C)C)c1NC(=O)NC(C)(Cc1ccccc1[N+](=O)[O-])C(=O)NCC1(c2ccccn2)CCCCC1 (stereo not drawn) [Example 21] | 20 | 2550 | –
CC(C)c1cccc(C(C)C)c1NC(=O)NC(C)(Cc1ccccn1)C(=O)NCC1(c2ccccn2)CCCCC1 (stereo not drawn) [Example 22, 2-[3-(2,6-Diisopropyl-phenyl)-ureido]-2-methyl-3-pyridin-2-yl-N-(1-pyridin-2-yl-cyclohexylmethyl)-propionamide] | 35 | 589 | –
CC(C)c1cccc(C(C)C)c1NC(=O)NC(Cc1c[nH]cn1)C(=O)NCC1(c2ccccn2)CCCCC1 (stereo not drawn) [Example 23] | 16 | 5360 | –
CC(C)c1cccc(C(C)C)c1N(C)C(=O)NC(C)(Cc1c[nH]c2ccccc12)C(=O)NCC1CCCCC1 (stereo not drawn) [Example 24] | 413 | > 10000 | –
Cc1nc(C2(CNC(=O)C(C)(Cc3c[nH]c4ccccc34)NC(=O)Nc3ccc([N+](=O)[O-])cc3)CCCCC2)cs1 (stereo not drawn) [Example 26] | 0.25 | 29 | –
COc1ccc(C2(CNC(=O)C(C)(Cc3c[nH]c4ccccc34)NC(=O)Nc3ccc([N+](=O)[O-])cc3)CCCCC2)nc1 (stereo not drawn) [Example 27] | – | 1 | –
CN(C)Cc1ccc(C2(CNC(=O)C(C)(Cc3c[nH]c4ccccc34)NC(=O)Nc3ccc([N+](=O)[O-])cc3)CCCCC2)cc1 (stereo not drawn) [Example 28] | 0.81 | 79 | –
CC(Cc1c[nH]c2ccccc12)(NC(=O)Nc1ccc([N+](=O)[O-])cc1)C(=O)NCC(c1ccccc1)N1CCCCC1 (stereo not drawn) [Example 29] | 10 | > 10000 | –
CC(Cc1c[nH]c2ccccc12)(NC(=O)Nc1ccc([N+](=O)[O-])cc1)C(=O)NCC1(c2c[nH]cn2)CCCCC1 (stereo not drawn) [Example 31] | 0.17 | 21 | –
COc1ccc(C2(CNC(=O)C(C)(Cc3c[nH]c4ccccc34)NC(=O)Nc3ccc(C#N)cc3)CCCCC2)nc1 (stereo not drawn) [Example 32] | 0.17 | 20 | –
